According to PubChem BioAssay AID2060604 (Molecular Pharmacology Branch, DTP, NCI, 2025):
“And” between values parts separate entries of the source, which are not always exact repeats. Equal entries are not always repeated.

Test system: 379773-124-R-J2-PDC complex spheroids, viability % test/control
Assay: Anticancer human tumor 379773-124-R-J2-PDC patient-derived endometrial carcinoma cell line growth inhibition [CLK]
Details: for viability, T/C: stronger effect = lower value
In short: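 Patient-derived tumor cells grown as complex spheroids with HUVEC endothelial cells and mesenchymal stem cells, treated with drug combinations. Concentrations descend in half-log steps from near clinical Cmax, or from 10 microM if Cmax unknown.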

[1] = curve of first compound, second compound 0.0316 µM
[2] = curve of first compound, second compound 0.1 µM
[3] = curve of first compound, second compound 0.316 µM
[4] = curve of first compound, second compound 1 µM
[5] = curve of first compound, second compound 3.16 µM
[6] = curve of first compound, second compound 10 µM
[7] = second compound 0.0316 µM, first compound 0.0316 µM
[8] = second compound 0.0316 µM, first compound 0.1 µM
[9] = second compound 0.0316 µM, first compound 0.316 µM
[10] = second compound 0.0316 µM, first compound 1 µM
[11] = second compound 0.0316 µM, first compound 3.16 µM
[12] = second compound 0.0316 µM, first compound 10 µM
[13] = second compound 0.1 µM, first compound 0.0316 µM
[14] = second compound 0.1 µM, first compound 0.1 µM
[15] = second compound 0.1 µM, first compound 0.316 µM
[16] = second compound 0.1 µM, first compound 1 µM
[17] = second compound 0.1 µM, first compound 3.16 µM
[18] = second compound 0.1 µM, first compound 10 µM
[19] = second compound 0.316 µM, first compound 0.0316 µM
[20] = second compound 0.316 µM, first compound 0.1 µM
[21] = second compound 0.316 µM, first compound 0.316 µM
[22] = second compound 0.316 µM, first compound 1 µM
[23] = second compound 0.316 µM, first compound 3.16 µM
[24] = second compound 0.316 µM, first compound 10 µM
[25] = second compound 1 µM, first compound 0.0316 µM
[26] = second compound 1 µM, first compound 0.1 µM
[27] = second compound 1 µM, first compound 0.316 µM
[28] = second compound 1 µM, first compound 1 µM
[29] = second compound 1 µM, first compound 3.16 µM
[30] = second compound 1 µM, first compound 10 µM
[31] = second compound 3.16 µM, first compound 0.0316 µM
[32] = second compound 3.16 µM, first compound 0.1 µM
[33] = second compound 3.16 µM, first compound 0.316 µM
[34] = second compound 3.16 µM, first compound 1 µM
[35] = second compound 3.16 µM, first compound 3.16 µM
[36] = second compound 3.16 µM, first compound 10 µM
[37] = second compound 10 µM, first compound 0.0316 µM
[38] = second compound 10 µM, first compound 0.1 µM
[39] = second compound 10 µM, first compound 0.316 µM
[40] = second compound 10 µM, first compound 1 µM
[41] = second compound 10 µM, first compound 3.16 µM
[42] = second compound 10 µM, first compound 10 µM
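Also: compound exposure lasted seven days before the viability readout.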
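For viability, T/C in this document: 100% = DMSO vehicle control wells.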

C=CC(=O)Nc1cc(Nc2nccc(-c3cn(C)c4ccccc34)n2)c(OC)cc1N(C)CCN(C)C + CNC(=O)c1ccc(Nc2nc(OC3CCCC3)c3c(-c4ccc5nc(C)oc5c4)c[nH]c3n2)c(OC)c1
IC50 [1]: > 300 nM
IC50 [2]: < 0.949 nM
IC50 [3]: < 0.949 nM
IC50 [4]: < 0.949 nM
IC50 [5]: < 0.949 nM
IC50 [6]: < 0.949 nM
viability, T/C (second compound 0.0316 µM, first compound 0.000949 µM): 82.7%
viability, T/C (second compound 0.0316 µM, first compound 0.003 µM): 84.2%
viability, T/C (second compound 0.0316 µM, first compound 0.00949 µM): 78.9%
viability, T/C (second compound 0.0316 µM, first compound 0.03 µM): 73%
viability, T/C (second compound 0.0316 µM, first compound 0.0949 µM): 77.6%
viability, T/C (second compound 0.0316 µM, first compound 0.3 µM): 58.1%
viability, T/C (second compound 0.1 µM, first compound 0.000949 µM): 35.2%
viability, T/C (second compound 0.1 µM, first compound 0.003 µM): 37%
viability, T/C (second compound 0.1 µM, first compound 0.00949 µM): 42.6%
viability, T/C (second compound 0.1 µM, first compound 0.03 µM): 31.2%
viability, T/C (second compound 0.1 µM, first compound 0.0949 µM): 32.5%
viability, T/C (second compound 0.1 µM, first compound 0.3 µM): 38%
viability, T/C (second compound 0.316 µM, first compound 0.000949 µM): 44.7%
viability, T/C (second compound 0.316 µM, first compound 0.003 µM): 39.9%
viability, T/C (second compound 0.316 µM, first compound 0.00949 µM): 32%
viability, T/C (second compound 0.316 µM, first compound 0.03 µM): 34.5%
viability, T/C (second compound 0.316 µM, first compound 0.0949 µM): 31.3%
viability, T/C (second compound 0.316 µM, first compound 0.3 µM): 26.2%
viability, T/C (second compound 1 µM, first compound 0.000949 µM): 45.4%
viability, T/C (second compound 1 µM, first compound 0.003 µM): 39%
viability, T/C (second compound 1 µM, first compound 0.00949 µM): 31.2%
viability, T/C (second compound 1 µM, first compound 0.03 µM): 28.8%
viability, T/C (second compound 1 µM, first compound 0.0949 µM): 26.6%
viability, T/C (second compound 1 µM, first compound 0.3 µM): 30.4%
viability, T/C (second compound 3.16 µM, first compound 0.000949 µM): 30.1%
viability, T/C (second compound 3.16 µM, first compound 0.003 µM): 37.5%
viability, T/C (second compound 3.16 µM, first compound 0.00949 µM): 32.5%
viability, T/C (second compound 3.16 µM, first compound 0.03 µM): 34.3%
viability, T/C (second compound 3.16 µM, first compound 0.0949 µM): 25.7%
viability, T/C (second compound 3.16 µM, first compound 0.3 µM): 28.2%
viability, T/C (second compound 10 µM, first compound 0.000949 µM): 30.9%
viability, T/C (second compound 10 µM, first compound 0.003 µM): 30.1%
viability, T/C (second compound 10 µM, first compound 0.00949 µM): 27.1%
viability, T/C (second compound 10 µM, first compound 0.03 µM): 35.1%
viability, T/C (second compound 10 µM, first compound 0.0949 µM): 28%
viability, T/C (second compound 10 µM, first compound 0.3 µM): 25.9%

C#Cc1c(F)ccc2cc(O)cc(-c3ncc4c(N5CC6CCC(C5)N6)nc(OCC56CCCN5CC(F)C6)nc4c3F)c12 (stereo unspecified) + CNC(=O)c1ccc(Nc2nc(OC3CCCC3)c3c(-c4ccc5nc(C)oc5c4)c[nH]c3n2)c(OC)c1
IC50 [1]: > 10000 nM
IC50 [2]: < 31.6 nM
IC50 [3]: < 31.6 nM
IC50 [4]: < 31.6 nM
IC50 [5]: < 31.6 nM
IC50 [6]: < 31.6 nM
viability, T/C [7]: 73.2%
viability, T/C [8]: 65%
viability, T/C [9]: 72.9%
viability, T/C [10]: 79.1%
viability, T/C [11]: 71.3%
viability, T/C [12]: 62%
viability, T/C [13]: 41.2%
viability, T/C [14]: 39%
viability, T/C [15]: 38.3%
viability, T/C [16]: 32.4%
viability, T/C [17]: 32.2%
viability, T/C [18]: 36%
viability, T/C [19]: 41%
viability, T/C [20]: 33.1%
viability, T/C [21]: 39%
viability, T/C [22]: 37.1%
viability, T/C [23]: 33.4%
viability, T/C [24]: 28.4%
viability, T/C [25]: 38.8%
viability, T/C [26]: 33%
viability, T/C [27]: 25.8%
viability, T/C [28]: 29.1%
viability, T/C [29]: 33.1%
viability, T/C [30]: 29%
viability, T/C [31]: 31.9%
viability, T/C [32]: 27.4%
viability, T/C [33]: 28.3%
viability, T/C [34]: 31.4%
viability, T/C [35]: 28%
viability, T/C [36]: 23.2%
viability, T/C [37]: 32.7%
viability, T/C [38]: 27.1%
viability, T/C [39]: 28%
viability, T/C [40]: 27.1%
viability, T/C [41]: 27.4%
viability, T/C [42]: 27.1%

CC(=O)O[C@H]1C(=O)[C@@]2(C)[C@H]([C@H](OC(=O)c3ccccc3)[C@]3(O)C[C@H](OC(=O)[C@H](O)[C@@H](NC(=O)c4ccccc4)c4ccccc4)C(C)=C1C3(C)C)[C@]1(OC(C)=O)CO[C@@H]1C[C@@H]2O
viability, T/C (compound 0.0316 µM): 6.12% and 4.78%
viability, T/C (compound 0.1 µM): 5.31% and 6.44%
viability, T/C (compound 0.316 µM): 6.35% and 7.02%
viability, T/C (compound 1 µM): 6.24% and 5.61%
viability, T/C (compound 3.16 µM): 4.99% and 3.42%
viability, T/C (compound 10 µM): 6.18% and 4.64%
IC50 (curve of compound): < 31.6 nM

CC(CO)NC(=O)c1cc(-c2ccc(Cl)cc2)nn(-c2cnn(C)c2)c1=O (stereo unspecified) + CN1CCN(c2cc(C(=O)Nc3cc4cc(-c5cnn(C)c5)ccc4cn3)ccn2)CC1
IC50 [1]: > 10000 nM
IC50 [2]: > 10000 nM
IC50 [3]: < 31.6 nM
IC50 [4]: < 31.6 nM
IC50 [5]: < 31.6 nM
IC50 [6]: < 31.6 nM
viability, T/C [7]: 100%
viability, T/C [8]: 86.8%
viability, T/C [9]: 90.3%
viability, T/C [10]: 102%
viability, T/C [11]: 102%
viability, T/C [12]: 66.5%
viability, T/C [13]: 96.9%
viability, T/C [14]: 86.3%
viability, T/C [15]: 79.8%
viability, T/C [16]: 105%
viability, T/C [17]: 75.1%
viability, T/C [18]: 52.9%
viability, T/C [19]: 24.6%
viability, T/C [20]: 27.9%
viability, T/C [21]: 33.9%
viability, T/C [22]: 32.1%
viability, T/C [23]: 32.6%
viability, T/C [24]: 24.4%
viability, T/C [25]: 0.57%
viability, T/C [26]: 0.17%
viability, T/C [27]: 0.46%
viability, T/C [28]: 0.65%
viability, T/C [29]: 0.68%
viability, T/C [30]: 0.88%
viability, T/C [31]: 1.45%
viability, T/C [32]: 0.87%
viability, T/C [33]: 0.16%
viability, T/C [34]: 2.5%
viability, T/C [35]: 1.79%
viability, T/C [36]: 1.37%
viability, T/C [37]: 0.55%
viability, T/C [38]: 0.23%
viability, T/C [39]: 0.2%
viability, T/C [40]: 0.85%
viability, T/C [41]: 0.23%
viability, T/C [42]: 0.65%

CCCS(=O)(=O)Nc1ccc(F)c(C(=O)c2c[nH]c3ncc(-c4ccc(Cl)cc4)cc23)c1F
viability, T/C (compound 0.0316 µM): 83.1% and 93.8%
viability, T/C (compound 0.1 µM): 88.5% and 84.4%
viability, T/C (compound 0.316 µM): 85.2% and 98.8%
viability, T/C (compound 1 µM): 100% and 90.3%
viability, T/C (compound 3.16 µM): 81.5% and 78.6%
viability, T/C (compound 10 µM): 64.6% and 53.6%
IC50 (curve of compound): > 10000 nM

CN1CCN(c2cc(C(=O)Nc3cc4cc(-c5cnn(C)c5)ccc4cn3)ccn2)CC1
viability, T/C (compound 0.0316 µM): 95.6% [middle of 12 runs]
viability, T/C (compound 0.316 µM): 28.3% [middle of 12 runs]
viability, T/C (compound 1 µM): 0.33% [middle of 10 runs]
viability, T/C (compound 3.16 µM): 0.29% [middle of 9 runs]
viability, T/C (compound 10 µM): 0.22% [middle of 9 runs]
IC50 (compound alone, run of 09/18/2023): 199 nM [middle of 12 runs]
